The text below walks through data of PubChem BioAssay (NCI).

Holding throughout (test): NCI anticancer screen, dose series, 48 h
Assay [1] relates to SK-OV-3 ovarian.
Assay [2] deals with HL-60(TB) leukemia.
For assay [3], the system named is MCF7 breast.
In assay [4] the test system is MDA-MB-231 breast.
In assay [5] the test system is A498 renal.
Assay [6] has as its system M14 melanoma.
Assay [7] deals with SK-MEL-28 melanoma.
For assay [8], the system named is MDA-MB-435.
The subject of assay [9] is ACHN renal.
The test system of assay [10] is KM12 colon.

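1) Cells in 96-well plates. 2) Compound, 48 h, 5 concentrations. 3) Linear interpolation between surrounding doses. 4) Unreached endpoint = highest concentration. GI50: concentration for 50% inhibition of growth. TGI is the concentration that stops growth completely.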

As for `CC(=O)NC(CCc1ccc(Cl)c(Cl)c1)c1cccc(O)c(=O)c1` (stereo not given), the GI50 in assay [1] is 1.43 µM; in [2], 0.833 µM; in assay [3], 0.412 µM; in assay [4], 0.709 µM; in assay [5], 1.15 µM; in assay [6], 0.434 µM. Further, the GI50 was 1.07 µM in assay [7], 1.07 µM in assay [8], 0.286 µM in assay [9] and 0.825 µM in [10]. The TGI is 17.4 µM in assay [1]; 5.3 µM in assay [2]; 37.4 µM in assay [3]; 15.5 µM in [4]; 25.8 µM in assay [5]; 3.09 µM in [6]. The TGI in [7] stood at 12.3 µM; in [8], 18.9 µM; in assay [9], 31.6 µM; in assay [10], 17.8 µM.
With `N=C1C(c2nc3ccccc3c(=O)[nH]2)=C(O)CN1c1cccc(Cl)c1`, the GI50 in assay [1] was 5.55 µM; in assay [2], 2.34 µM; in assay [3] it was 4.19 µM; in assay [4], more than 100 µM; in [5], 1.9 µM; in assay [6] it was 5.26 µM. Moreover, the GI50 in [7] was more than 22.3 µM; in [8], 0.948 µM; in assay [9] it was 3.4 µM; in [10], 2.01 µM. Also, the TGI is more than 100 µM in assay [1]; more than 100 µM in assay [2]; more than 100 µM in [3]; more than 100 µM in [4]; 17.1 µM in assay [5]; more than 100 µM in assay [6]. The TGI in assay [7] was more than 100 µM; in assay [8] it was 3.8 µM; in assay [9] it was more than 100 µM; in [10], more than 100 µM.
With `CC(C)(Oc1cccc(N2CCC[C@@H](C(=O)N(Cc3ccc(-c4cn[nH]c4)cc3)C3CC3)C2)c1)C(=O)N1CCNCC1`, the GI50 in assay [1] is 16.9 µM; in assay [2], 13.8 µM; in [3] it was 11.6 µM; in [4], 14.8 µM; in [5], 16 µM; in [6], 14.9 µM. Also, the GI50 in assay [7] is 13.1 µM; in assay [8], 13.8 µM; in [9], 16.1 µM; in [10], 14.8 µM. The TGI is 33.6 µM in assay [1]; more than 100 µM in assay [2]; 25.4 µM in assay [3]; 29.7 µM in [4]; 30.1 µM in [5]; 30.1 µM in assay [6]. Further, the TGI in assay [7] was 26.1 µM; in assay [8] it was 27.2 µM; in [9], 29.6 µM; in assay [10], 28.8 µM.
As to `O=C(Nc1nc2ccc(OC(F)(F)F)cc2s1)c1ccc(F)cc1`, the GI50 in [1] was 2.6 µM; in [2] it was 3.04 µM; in assay [3] it was 2.12 µM; in [4], 3.3 µM; in assay [5] it was 2.93 µM; in [6], 4.4 µM. Moreover, the GI50 was 3.6 µM in assay [7], 2.98 µM in assay [8], 2.4 µM in [9] and 2.69 µM in [10]. The TGI in assay [1] is 8.44 µM; in assay [2], 9.29 µM; in [3] it was 18.2 µM; in assay [4], 18.9 µM; in [5], 9.2 µM; in assay [6] it was more than 100 µM. Besides, the TGI was more than 100 µM in assay [7], more than 100 µM in assay [8], 6.18 µM in assay [9] and more than 100 µM in [10].
As to `Cc1ncnc2c1ccn2[C@@H]1C[C@H](Oc2cc(C(F)F)c(F)c3c2CNCC3)[C@@H](O)[C@H]1O`, the GI50 in assay [1], in [2], in assay [3], in assay [4], in assay [5] and in assay [6] was more than 100 µM throughout. Besides, the GI50 in assay [7], in assay [8], in assay [9] and in assay [10] was more than 100 µM in each case. Moreover, the TGI in assay [1], in [2], in [3], in assay [4], in assay [5] and in assay [6] was more than 100 µM each time. The TGI in assay [7], in assay [8], in assay [9] and in assay [10] was more than 100 µM throughout.
As for `CN1CCC(=C(c2ccc(Cl)cc2)c2ccccn2)CC1`, the GI50 in assay [1] was 61.9 µM; in assay [2] it was 58.9 µM; in [3], more than 100 µM; in [4], 34.5 µM; in assay [5] it was 45.8 µM; in [6] it was 19.2 µM. The GI50 in [7] is 86.1 µM; in assay [8] it was 40.7 µM; in assay [9], more than 100 µM; in assay [10], more than 100 µM. The TGI is more than 100 µM in [1]; more than 100 µM in assay [2]; more than 100 µM in [3]; more than 100 µM in assay [4]; more than 100 µM in [5]; 38.7 µM in [6]. For the same compound, the TGI in assay [7], in [8], in assay [9] and in [10] was more than 100 µM throughout.
As to `N#CC(Cl)CS(=O)(=O)c1ccccc1` (stereo not given), the TGI in assay [1] is 33.6 µM; in assay [2] it was more than 100 µM; in assay [3] it was 32.8 µM; in [4], 41.4 µM; in assay [5], 30.9 µM; in assay [6], 9.59 µM. For the same compound, the TGI came out at 28 µM in assay [7], 32.1 µM in assay [8], 9.96 µM in assay [9] and 33.3 µM in assay [10].
For `COc1ccc(/C=C/C(=O)C(=O)/C=C/c2ccc(OC)c(OC)c2)cc1OC`, the GI50 in assay [1] is 36.4 µM; in assay [2], 2.36 µM; in assay [3] it was 0.516 µM; in [4] it was 2.25 µM; in assay [5] it was 2.26 µM; in [6], 1.69 µM. For the same compound, the GI50 in assay [8] was 1.16 µM; in assay [9], 2.05 µM; in assay [10] it was 1.6 µM. The TGI in [1] is more than 100 µM; in assay [2], 16.9 µM; in assay [3] it was 9.48 µM; in [4], 6 µM; in assay [5], 19.9 µM; in assay [6] it was 4.4 µM. The TGI worked out at 2.98 µM in [8], 5.4 µM in [9] and 3.67 µM in assay [10].
With `CC1(C)CCC2(C(=O)O)C(O)CC3(C)C(=CCC4C5(C)CCC(OC6OCC(O)C(O)C6OC6OCC(O)C(O)C6OC6OCC(O)C(OC7OC(CO)C(O)C(O)C7O)C6O)C(C)(C)C5CCC43C)C2C1` (stereo not given), the TGI in assay [1] was 40.2 µM; in [2] it was 48.3 µM; in assay [3], more than 100 µM; in assay [4] it was more than 100 µM; in [5], 59 µM; in [6], more than 100 µM. For the same compound, the TGI in assay [7] is more than 100 µM; in assay [8], 93 µM; in [9], more than 100 µM; in assay [10], 44.1 µM.
As for `CCN(CC)Cc1cc(Nc2ccnc3ccc(OC)cc23)ccc1O`, the GI50 is 7.15 µM in assay [1]; 1.94 µM in [2]; 2.71 µM in [3]; 4.76 µM in assay [4]; 2.75 µM in assay [5]; 2.88 µM in [6]. For the same compound, the GI50 in [7] was 3.4 µM; in assay [8], 3.08 µM; in assay [9], 2.82 µM; in assay [10] it was 3.21 µM. The TGI was found to be 34.5 µM in [1]; 8.83 µM in assay [2]; 9.62 µM in assay [3]; 31.2 µM in assay [4]; 12.5 µM in assay [5]; 10.1 µM in assay [6]. Further, the TGI is 10.4 µM in assay [7], 12.3 µM in assay [8], 9.5 µM in assay [9] and 16 µM in assay [10].
With `CCN1CCCCCCCCCC(=N/O)/C(=N\O)C1`, the TGI in assay [2], in assay [3], in [4], in assay [5], in assay [6] and in assay [7] was more than 100 µM in each case. The TGI in assay [8], in assay [9] and in assay [10] was more than 100 µM each time.
For `CC[C@]1(O)CC2CN(CCc3c([nH]c4ccccc34)C(C(=O)OC)(c3cc4c(cc3OC)N(C=O)[C@H]3[C@@](O)(C(=O)OC)[C@H](OC(C)=O)[C@]5(CC)[C@@H]6C[C@@H]6CN6CC[C@]43[C@@H]65)C2)C1` (stereo not given in full), the GI50 in assay [1], in assay [2], in [3], in assay [4], in assay [5] and in [6] was less than 0.00325 µM throughout. In addition, the GI50 in assay [8] was less than 0.00325 µM; in assay [9], 0.0139 µM; in assay [10], less than 0.00325 µM. Moreover, the TGI in assay [1] was less than 0.00325 µM; in assay [2] it was less than 0.00325 µM; in assay [3], more than 11.7 µM; in [4], 0.191 µM; in assay [5] it was 0.00882 µM; in assay [6], 0.00478 µM. Also, the TGI in [8] was less than 0.00325 µM; in [9], more than 23.5 µM; in assay [10] it was 0.00386 µM.
